Laboratory results as given in patent US6888033B1, “Anti-viral compounds” (Cytoclonal Pharmaceutics, Inc., priority 1996, dated 2005).
Where two headings read alike, the source gives them in different places.

Key:
[1] = target: T1, Recombinant HRV-1A 3C protease (Human rhinovirus 1A, UniProt P23008); test: HRV 3C Protease Inhibition Assay - HPLC Method; format: biochemical; conditions: Km value of 1.9 mM, overnight incubation
T1 construct: HRV-1A 3C protease was produced in E. Coli [BL21(DE3)pLysS] containing the protease gene; made in house; host or cells: E. coli BL21(DE3)pLysS, T7 expression vector

H1-HeLa cells = test: 50% toxic dose (TD50); format: cell-based
[2] = tested on: human rhinovirus 14, strain 1059; test: Inhibition of virus in whole-cell assay (inhibition of cytopathic effect); format: cell-based
Procedure: H1-HeLa cells, obtained from ATCC (F-13824, 1958-CRL) were cultured in MEM (Minimum Essential Medium) supplemented with 10% heat-inactivated fetal calf serum (FCS) by incubation at 37° C, 5% CO2 (Biological Industry, Kibbuts Beit HaEmek, Israel).
96 well plates were seeded to 90% confluency. After 12-24 hrs of incubation, the cell's monolayer was washed with phosphate-buffered saline (PBS), and the cells were subsequently infected with ten-fold dilutions in PBS (log10) of human rhinovirus 14, strain 1059, obtained from ATCC.
For each concentration of compound, three rows of wells containing various dilutions of virus were used. After 1 h of incubation at room temperature, medium containing 3% FCS and various concentrations of compound to be tested was placed in the well. After 2 days incubation at 34° C, 5% CO2, the cells were fixed by 10% formaldehyde and stained with methylene blue to determine cell viability. The cytopathic effect of non-viable cells was arbitrarily set to 100% for the untreated viral infection, so that the effect of each compound on cell viability was determined according to this baseline. Each experiment was performed 5 times for each compound, and the inhibition of cytopathic effect (ICE50) for inhibition of viral activity was calculated. […] ICE50 refers to the concentration in which 50% of the cells remain viable after viral infection.

chymotripsin = chymotripsin (Bos taurus, UniProt P00766); test: Chymotripsin assay (specificity); format: biochemical; conditions: all DIF1 concentrations tested
Procedure: (§1) The specificity of DIF1 as an enzyme inhibitor was tested using cleavage assays for a number of other enzymes, including elastase, cathepsin B, chymotripsin, papain and ficin A. Elastase was particularly important because it is present in […], so that inhibition of its activity could potentially be highly toxic. […] The experimental method was as follows.
(§2) The cleavage activity for cathepsin B was assayed according to the method of Bajowski an Frankfater (Anal. Biochem. 68:119 (1975)). Chymotripsin was assayed in 0.1M KPi buffer pH 7.0 containing 0.04 μg/ml enzyme and 200 μM N-benzyl-L-tryosine ethyl ester (from a 20 mM stock in dimethyl sulfoxide). The reaction was monitored by spectrophotometry at 256 nm.

papain = target: T2, papain (Carica papaya, UniProt P00784); test: Papain assay (specificity); format: biochemical; conditions: all DIF1 concentrations tested
T2 sequence (P00784 134-345): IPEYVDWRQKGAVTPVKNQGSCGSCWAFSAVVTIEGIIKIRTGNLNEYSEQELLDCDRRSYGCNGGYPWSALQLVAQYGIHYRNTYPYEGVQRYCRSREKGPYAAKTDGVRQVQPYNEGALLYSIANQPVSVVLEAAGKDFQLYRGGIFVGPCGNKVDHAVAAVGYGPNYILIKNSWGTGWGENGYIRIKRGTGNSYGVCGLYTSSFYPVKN
Procedure: as §1
(§3) Papain and Ficin were incubated for one hour in an activation solution containing 0.1 M KPi buffer pH 7.0. 0.5 mM cysteine, 20 mM EDTA and 65 μg enzyme. The assays were carried out by adding 20 μl aliquots from the activation mix to 0.1 M KPi buffer pH 7.0, containing 12.5 nM N-CBZ-p-Nitrophenyl ester. The reaction was monitored by spectrphotometry at 405 nm.

cathepsin B = cathepsin B (Homo sapiens, UniProt P07858); test: Cathepsin B cleavage activity (specificity); format: biochemical; conditions: all DIF1 concentrations tested
Procedure: as §1, §2

elastase = test: Elastase cleavage activity (specificity); format: biochemical; conditions: 50 mM DIF1
Procedure: as §1
The cleavage activity of elastase was determined in 0.1 M Tris-HCl pH 7.0 buffer containing 20 μg/ml enzyme and its synthetic substrate. N-succinyl-Ala-Ala-Ala-p-nitroanilide.

ficin A = test: Ficin assay (specificity); format: biochemical; conditions: all DIF1 concentrations tested
Procedure: as §1, §3

HRV 3C protease = target: T3, HRV 3C protease (Human rhinovirus 1A, UniProt P23008); test: Inhibition of 3C protease cleavage activity, peptide cleavage assay with reverse phase HPLC; format: biochemical
T3 construct: 2.5 μg of HRV 3C protease
Procedure: Next, the inhibition of 3C protease activity was measured by using a cleavage assay. […] Specific cleavage of this peptide [(N-Ac)Arg-Ala-Glu-Leu-Gln-Gly-Pro-[…]-Asp-Glu] (SEQ ID NO:2) by HRV 3C provided two pentapeptides. In a typical experiment 80 μg of peptide, dissolved in 100 mM TRIS (pH 8) and 100 mM NaCl, was incubated at 35° C. with 2.5 μg of HRV 3C protease with and without DIF1, to give a total volume of 30 μl. In both cases 3C was suspended in a buffered solution (40 mM Tris-HCL, pH 8.0, 100 mM, NaCl, 1 mM DTT, 1 mM EDTA), 2.5 mg of DIF1 (dissolved in 1 ml of ethanol) was used, corresponding to a concentration of 270 μM. Inhibitory effects due to the organic solvent were not observed; nevertheless, 10 μl of ethanol were added to the control. Aliquots were drawn at short intervals (within ca. 40 min.) and quenched with an equal volume of 1% TFA in Methanol (HPLC grade). […]
The degree of 3C protease inhibition by DIF1 was found by integration of peak areas under the 280 nm absorption curve. The degree of cleavage was calculated as the ratio of peak areas corresponding to peptide alone and peptide plus GPYDE (SEQ ID NO:3) product. Quantification was based on the initial, linear portion of the absorption curve, which represents less than 20% cleavage.

T1 sequence (P23008 1515-1697): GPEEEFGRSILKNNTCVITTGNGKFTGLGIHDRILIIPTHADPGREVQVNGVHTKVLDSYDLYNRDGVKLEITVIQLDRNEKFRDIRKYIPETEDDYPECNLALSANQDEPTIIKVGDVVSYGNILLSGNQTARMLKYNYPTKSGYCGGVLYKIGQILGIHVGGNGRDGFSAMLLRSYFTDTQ
T3 sequence (P23008 1515-1697): as above

SMILES: O=C1C=CC(=O)c2c(O)cccc21 [Compound 3, Juglone, reference compound]
- Ki [1]: 630 ± 70 µM

SMILES: CCCCCC(=O)c1c(O)c(Cl)c(O)c(Cl)c1OC [Compound 16, 1-(3,5-dichloro-2,4-dihydroxy-6-methoxyphenyl)-hexan-1-one]
- TD50 (H1-HeLa cells): 40
- IC50 ([2]; Rhinovirus B, H1-HeLa cells, HRV 14, Table 2, Formula V, read-out: IC50): 3 µM
- Ki [1]: 390 ± 30 µM

SMILES: CC(=O)c1c(O)c(Cl)cc(Cl)c1O [Compound 109]
- TD50 (H1-HeLa cells): 5000 µM
- IC50 ([2]; H1-HeLa cells, HRV 14, 2 days at 34° C, Table 1, Formula IV, read-out: ICE50): 1250 µM

SMILES: O=C(CCc1ccc(O)cc1)c1c(O)cc(O)cc1O [Formula VIII, Z′=OH, Y′=H, R3=OH, Y=H, phloretin]
- TD50 (H1-HeLa cells): 160

SMILES: COc1cc(O)c(Cl)c(O)c1C(C)=O [Compound 25]
- TD50 (H1-HeLa cells; human): 22 µM
- IC50 ([2]; Rhinovirus B, 48 h, H1-HeLa cells, HRV 14, 2 days at 34° C, Table 1, Formula IV, read-out: ICE50): 11 µM
- melting point: 187.5 to 189 °C
- Ki [1]: 3000 ± 1500 µM

SMILES: COc1ccc(C(=O)c2ccccc2O)c(O)c1 [Compound 1, Dioxybenzone, reference compound]
- Ki [1]: 4700 ± 900 µM

SMILES: COc1cc(O)cc(O)c1C(C)=O [Compound 23, 2,4-dihydroxy-6-methoxy acetophenone]
- TD50 (H1-HeLa cells; Table 1, Formula IV): 220 µM

SMILES: COCCC(O)CC(O)C(=O)c1ccccc1 (stereo not drawn) [Compound 108, 2,4-dihydroxy-6-methoxyhexanophenone]
- melting point: 109 °C

SMILES: COC(CCO)CC(O)C(=O)c1ccccc1 (stereo not drawn) [Compound 107, 2,6-dihydroxy-4-methoxyhexanophenone]
- melting point: 121 °C

SMILES: CCCCCC(=O)c1c(O)c(Cl)c(O)c(Cl)c1O [Compound 20]
- TD50 (H1-HeLa cells): 1875
- Ki [1]: 460 ± 60 µM

SMILES: CCCCCC(=O)c1c(O)c(Cl)c(OC)c(Cl)c1O [Compound 15, 1-(3,5-dichloro-2,6-dihydroxy-4-methoxyphenyl)-hexan-1-one]
- effect on proteolytic activity of chymotripsin (chymotripsin): not to effect
- effect on proteolytic activity of papain (papain): not to effect
- effect on proteolytic activity of cathepsin B (cathepsin B): not to effect
- TD50 (H1-HeLa cells): 30
- IC50 ([2]; Rhinovirus B, H1-HeLa): 7.5 µM
- inhibition of cleavage activity of elastase (elastase): did not inhibit
- Ki [1]: 460 ± 80 µM
- effect on proteolytic activity of ficin A (ficin A): not to effect
- Ki (HRV 3C protease; HRV 3C protease, N-acetylated 10-mer peptide substrate, 35° C.): 220 µM
- rate of substrate cleavage (HRV 3C protease; in the presence of 270 μM DIF1): decreased significantly
